Data taken from the NIST ThermoML archive (doi:10.1021/je060116w).
Numbers after ± are expanded uncertainties.

Conditions: Hot wire method

FC(F)CC(F)(F)F [1,1,1,3,3-pentafluoropropane]
Liquid
Conditions	thermal conductivity [W/m/K]
244.4 K	0.1044 ± 0.0021
244.64 K	0.1043 ± 0.0021
244.9 K	0.1041 ± 0.0021
254.41 K	0.1014 ± 0.0021
254.67 K	0.1014 ± 0.0021
254.94 K	0.1013 ± 0.0021
264.37 K	0.09835 ± 0.002
264.64 K	0.0982 ± 0.002
264.91 K	0.0981 ± 0.002
274.38 K	0.09519 ± 0.0019
274.66 K	0.09525 ± 0.0019
274.94 K	0.09497 ± 0.0019
284.51 K	0.09219 ± 0.0019
284.8 K	0.09211 ± 0.0019
285.08 K	0.09178 ± 0.0019
294.42 K	0.08894 ± 0.0018
294.67 K	0.08895 ± 0.0018
294.99 K	0.08862 ± 0.0018
304.46 K	0.08598 ± 0.0018
304.72 K	0.08564 ± 0.0018
305.08 K	0.08542 ± 0.0018
314.17 K	0.0826 ± 0.0017
314.45 K	0.08276 ± 0.0017
314.53 K	0.08259 ± 0.0017
314.76 K	0.08269 ± 0.0017
314.8 K	0.08262 ± 0.0017
315.13 K	0.08252 ± 0.0017
315.17 K	0.08234 ± 0.0017
324.46 K	0.0795 ± 0.0016
324.78 K	0.07945 ± 0.0016
325.15 K	0.07953 ± 0.0016
334.52 K	0.07649 ± 0.0016
334.84 K	0.0765 ± 0.0016
335.21 K	0.0765 ± 0.0016
344.59 K	0.07365 ± 0.0015
344.93 K	0.07351 ± 0.0015
345.31 K	0.07356 ± 0.0015
354.66 K	0.07059 ± 0.0014
355 K	0.07059 ± 0.0014
355.37 K	0.07058 ± 0.0014
364.67 K	0.06648 ± 0.0014
365.04 K	0.06636 ± 0.0014
365.43 K	0.06604 ± 0.0014
374.69 K	0.06371 ± 0.0013
375.06 K	0.0631 ± 0.0013
375.44 K	0.06262 ± 0.0013
384.7 K	0.06117 ± 0.0013
385.14 K	0.0606 ± 0.0013
385.48 K	0.05985 ± 0.0012
394.71 K	0.05833 ± 0.0012
395.1 K	0.05813 ± 0.0012
395.52 K	0.05783 ± 0.0012
404.77 K	0.05598 ± 0.0012
405.12 K	0.05595 ± 0.0012
405.54 K	0.05564 ± 0.0011
414.79 K	0.05331 ± 0.0011
415.16 K	0.05316 ± 0.0011
415.54 K	0.0529 ± 0.0011

Gas
Conditions	thermal conductivity [W/m/K]
296.14 K, 121.3 kPa	0.01256 ± 0.00032
297.06 K, 121.3 kPa	0.01257 ± 0.00032
297.76 K, 121.3 kPa	0.01267 ± 0.00033
305.45 K, 123.2 kPa	0.01342 ± 0.00044
305.99 K, 123.2 kPa	0.01345 ± 0.00035
306.63 K, 123.2 kPa	0.01352 ± 0.00038
315.24 K, 203.4 kPa	0.01425 ± 0.00036
315.99 K, 203.4 kPa	0.01428 ± 0.00036
316.55 K, 203.4 kPa	0.01435 ± 0.00036
325.29 K, 203.3 kPa	0.0152 ± 0.00038
326.02 K, 203.3 kPa	0.01524 ± 0.00038
326.56 K, 203.3 kPa	0.01527 ± 0.00038
335.28 K, 291.6 kPa	0.01607 ± 0.0004
335.96 K, 291.6 kPa	0.0161 ± 0.0004
336.77 K, 291.6 kPa	0.01611 ± 0.0004
345.15 K, 303 kPa	0.01704 ± 0.00042
345.77 K, 303 kPa	0.0171 ± 0.00043
346.5 K, 303 kPa	0.01714 ± 0.00043
354.97 K, 738.2 kPa	0.01782 ± 0.00044
355.04 K, 579.7 kPa	0.01778 ± 0.00044
355.53 K, 738.2 kPa	0.01786 ± 0.00044
355.63 K, 579.7 kPa	0.01782 ± 0.00044
356.17 K, 738.2 kPa	0.0179 ± 0.00044
356.29 K, 579.7 kPa	0.01791 ± 0.00044
364.88 K, 954.5 kPa	0.01876 ± 0.00046
365.05 K, 617.9 kPa	0.01865 ± 0.00046
365.4 K, 954.5 kPa	0.01875 ± 0.00046
365.61 K, 617.9 kPa	0.01873 ± 0.00046
365.96 K, 954.5 kPa	0.0189 ± 0.00047
366.24 K, 617.9 kPa	0.01878 ± 0.00046
374.84 K, 1243 kPa	0.01982 ± 0.00049
374.99 K, 997 kPa	0.01966 ± 0.00048
375.13 K, 604.2 kPa	0.01956 ± 0.00048
375.31 K, 1243 kPa	0.01995 ± 0.00049
375.48 K, 997 kPa	0.01969 ± 0.00048
375.71 K, 604.2 kPa	0.01959 ± 0.00048
375.83 K, 1243 kPa	0.02001 ± 0.00049
376.05 K, 997 kPa	0.01976 ± 0.00049
376.31 K, 604.2 kPa	0.01963 ± 0.00048
384.79 K, 1489.1 kPa	0.0211 ± 0.00052
385.04 K, 998.9 kPa	0.02061 ± 0.0005
385.2 K, 598.1 kPa	0.02052 ± 0.0005
385.21 K, 1489.1 kPa	0.02101 ± 0.00051
385.55 K, 998.9 kPa	0.02067 ± 0.00051
385.68 K, 1489.1 kPa	0.02112 ± 0.00052
385.76 K, 598.1 kPa	0.02059 ± 0.0005
386.13 K, 998.9 kPa	0.02072 ± 0.00051
386.35 K, 598.1 kPa	0.0206 ± 0.0005
394.74 K, 1765.3 kPa	0.02246 ± 0.00055
394.9 K, 1498.3 kPa	0.02208 ± 0.00054
395.07 K, 602.5 kPa	0.02148 ± 0.00052
395.09 K, 1004.6 kPa	0.02149 ± 0.00052
395.16 K, 1765.3 kPa	0.02251 ± 0.00055
395.36 K, 1498.3 kPa	0.02216 ± 0.00054
395.52 K, 1765.3 kPa	0.02258 ± 0.00055
395.58 K, 602.5 kPa	0.02153 ± 0.00052
395.6 K, 1004.6 kPa	0.02161 ± 0.00053
395.75 K, 1498.3 kPa	0.02218 ± 0.00054
395.94 K, 602.5 kPa	0.02147 ± 0.00052
396.04 K, 1004.6 kPa	0.02168 ± 0.00053
404.55 K, 2269.8 kPa	0.02483 ± 0.0006
404.75 K, 1999.2 kPa	0.02362 ± 0.00057
404.85 K, 1500.7 kPa	0.02277 ± 0.00055
404.89 K, 2269.8 kPa	0.02475 ± 0.0006
405 K, 998.4 kPa	0.02248 ± 0.00055
405.12 K, 604.3 kPa	0.02248 ± 0.00055
405.14 K, 1999.2 kPa	0.02364 ± 0.00057
405.29 K, 2269.8 kPa	0.02484 ± 0.0006
405.3 K, 1500.7 kPa	0.02285 ± 0.00056
405.48 K, 998.4 kPa	0.02253 ± 0.00055
405.55 K, 1999.2 kPa	0.02369 ± 0.00057
405.62 K, 604.3 kPa	0.02249 ± 0.00055
405.78 K, 1500.7 kPa	0.02302 ± 0.00056
406.02 K, 998.4 kPa	0.0227 ± 0.00055
406.18 K, 604.3 kPa	0.02253 ± 0.00055
414.76 K, 2496.6 kPa	0.02664 ± 0.00064
414.88 K, 1998 kPa	0.02456 ± 0.00059
415.04 K, 995.9 kPa	0.02342 ± 0.00057
415.04 K, 1502.2 kPa	0.02374 ± 0.00058
415.15 K, 604.1 kPa	0.02337 ± 0.00057
415.25 K, 2496.6 kPa	0.02694 ± 0.00065
415.45 K, 1998 kPa	0.0246 ± 0.0006
415.64 K, 604.1 kPa	0.02346 ± 0.00057
415.64 K, 1502.2 kPa	0.02378 ± 0.00058
415.66 K, 2496.6 kPa	0.02696 ± 0.00065
415.68 K, 995.9 kPa	0.02355 ± 0.00057
415.92 K, 1998 kPa	0.02467 ± 0.0006
416.18 K, 1502.2 kPa	0.02399 ± 0.00058
416.19 K, 604.1 kPa	0.02348 ± 0.00057
416.22 K, 995.9 kPa	0.0236 ± 0.00057
